Experiments:
rat remnant kidney model [1] = assay: Efficacy in rat remnant kidney model of nephropathy (renal mass reduction); type: in vivo; details: for Mortality Rates in Remnant Kidney Model / Mortality compared to the vehicle treated group: in drinking water; for Mortality Rates in Remnant Kidney Model: started 21 days after RMR, n=12/group; for Mortality compared to the vehicle treated group: Compound 1 30 mg/kg/d, losartan 10 mg/kg; for percentage of sclerotic glomeruli compared with vehicle: renal histology at termination of the experiment; for number of ED 1 positive cells per field (monocytes/macrophages in the renal interstitium): renal histology at termination, not statistically significant vs vehicle (61±5)
Excerpt: (§1) The rat remnant kidney model is an animal model of severe progressive renal failure. In this model, a state of severe progressive renal failure is produced by renal mass reduction (RMR) through removal of one kidney and ligation of several branches of the renal artery, resulting in infarction and loss of function of two thirds of the remaining kidney. The procedure creates the conditions of severe hypertension, proteinuria, progressive renal function deterioration, tubulointerstitial damage and glomerulosclerosis (Olson J L, Hostetter T H, Rennke H G, Brenner B M, Venkatachalam M A: “Altered glomerular permselectivity and progressive sclerosis following extreme ablation of renal mass”. Kidney Int 22:112-126, 1982).
Nephropathy is evident as a progressively increasing amount of protein in urine, increases in serum creatinine and increases in arterial pressure. In addition, severe sclerosis of the glomeruli, inflammatory cell infiltration and tubular damage are measurable through histological analysis within 3 months of RMR. These measures form the basis for determining efficacy in the model. Urine protein, serum creatinine and arterial pressure are similarly measured in humans to determine impact of treatments on disease progression.
The aim of this study was to evaluate the effects of Compound 1 compared to an angiotensin receptor blocker (losartan), as well as the combination treatment with Compound 1 and losartan, on proteinuria and renal disease progression in this model. The effectiveness of these agents has been associated with reductions in proteinuria, slowing of the rate of rise in serum creatinine and reduction in glomerular sclerosis and thus slowing of the progression to end stage renal failure.
(§2) Treatment groups (n=12/group) included vehicle; Compound 1 at 30 mg/kg/d; losartan at 10 mg/kg; and losartan at 10 mg/kg+Compound 1 at 30 mg/kg/d. All compounds were administered in drinking water. An additional sham-operated untreated group was also included. Measurements were made at 21 d after RMR but before treatment, and at one and two months of treatment.
At the termination of the experiment kidneys were examined quantitatively for histopathological damage. […] Accumulation of monocytes/macrophages in the renal interstitium was quantified as the number of ED 1 (an antibody to CD68, a monocyte/macrophage specific antigen) positive cells per field.

rat remnant kidney model [2] = assay: Blood pressure in rat remnant kidney model; type: in vivo; details: 1- and 2-months of treatment
Excerpt: as §1
as §2, with “Treatments were started 21 days after RMR, when animals already had overt nephropathy. Treatment” for “Treatment”, “treatment. Mortality was less in the Compound 1, losartan and Compound 1+ losartan groups compared to the vehicle treated group (Table 1). […]” for “treatment.”

remnant kidney model = assay: Water intake and diuresis in remnant kidney model; type: in vivo, rat; details: mean ± S.E.
Excerpt: as §1, §2

[3] = 2 month of treatment, n = 10, 10 and 11
[4] = Pre-treatment (21 d after RMR), n = 12

## CCCCc1nc(Cl)c(CO)n1Cc1ccc(-c2ccccc2-c2nn[nH]n2)cc1 [losartan]
Rat remnant kidney model [1]; 1 month of treatment
  Mortality Rates in Remnant Kidney Model: 12/12
Rat remnant kidney model [1]; 2 month of treatment
  Mortality Rates in Remnant Kidney Model: 2/12
Rat remnant kidney model [1]
  Mortality compared to the vehicle treated group: less
  percentage of sclerotic glomeruli compared with vehicle: significant reduction
  number of ED 1 positive cells per field (monocytes/macrophages in the renal interstitium): 38±6 positive cells per field
Rat remnant kidney model [1]; at 1 and 2 months of treatment
  serum creatinine compared to the vehicle group: reduced
  statistical significance of the effect on urine protein excretion: not statistically significant
  urine protein excretion compared to the vehicle group: reduced
Rat remnant kidney model [2]
  arterial pressure compared to vehicle: statistically significant decrease
Remnant kidney model; 1 month of treatment, n = 12
  diuresis: 45 ± 3 mL/24 h
  water intake: 77 ± 4 mL/24 h
Remnant kidney model; [3]
  diuresis: 45 ± 4 mL/24 h
  water intake: 76 ± 5 mL/24 h
Remnant kidney model; [4]
  diuresis: 45 ± 3 mL/24 h
  water intake: 68 ± 4 mL/24 h
Remnant kidney model; basal, n = 12
  diuresis: 20 ± 1 mL/24 h
  water intake: 46 ± 2 mL/24 h

## COc1cc(C(=O)N2CC[C@]3(C=C(C(=O)O)CC3)Cc3ccccc32)ccc1NC(=O)c1cc(F)ccc1Cl [Compound 1]
Rat remnant kidney model [1]; 1 month of treatment
  Mortality Rates in Remnant Kidney Model: 12/12
Rat remnant kidney model [1]; 2 month of treatment
  Mortality Rates in Remnant Kidney Model: 2/12
Rat remnant kidney model [1]
  Mortality compared to the vehicle treated group: less
  percentage of sclerotic glomeruli compared with vehicle: tended to decrease
  number of ED 1 positive cells per field (monocytes/macrophages in the renal interstitium): 45±5 positive cells per field
Rat remnant kidney model [1]; at 1 and 2 months of treatment
  serum creatinine compared to the vehicle group: reduced
  urine protein excretion compared to the vehicle group: reduced
Rat remnant kidney model [2]
  arterial pressure compared to vehicle: tended to decrease
Remnant kidney model; 1 month of treatment, n = 12
  diuresis: 47 ± 4 mL/24 h
  water intake: 70 ± 8 mL/24 h
Remnant kidney model; [3]
  diuresis: 43 ± 5 mL/24 h
  water intake: 72 ± 10 mL/24 h
Remnant kidney model; [4]
  diuresis: 44 ± 3 mL/24 h
  water intake: 65 ± 2 mL/24 h
Remnant kidney model; basal, n = 12
  diuresis: 19 ± 1 mL/24 h
  water intake: 43 ± 2 mL/24 h
